The results in this text go back to ChEMBL document CHEMBL5291721, “A preclinical secondary pharmacology resource illuminates target-adverse drug reaction associations of marketed drugs” (Nat Commun, 2023).

Each structure is given as a SMILES string.

Experiment [1] addresses T1, Acetylcholinesterase (Homo sapiens, UniProt P22303). The experiment is classed as functional.
Experiment [2] has as its target Kappa-type opioid receptor (Homo sapiens, UniProt P41145).
Another experiment concerns the target D(3) dopamine receptor (Homo sapiens, UniProt P35462).
The target of experiment [3] is Neuronal acetylcholine receptor subunit alpha-4 (Homo sapiens, UniProt P43681).
Chain of Neuronal acetylcholine receptor subunit alpha-4 (P43681 whole entry): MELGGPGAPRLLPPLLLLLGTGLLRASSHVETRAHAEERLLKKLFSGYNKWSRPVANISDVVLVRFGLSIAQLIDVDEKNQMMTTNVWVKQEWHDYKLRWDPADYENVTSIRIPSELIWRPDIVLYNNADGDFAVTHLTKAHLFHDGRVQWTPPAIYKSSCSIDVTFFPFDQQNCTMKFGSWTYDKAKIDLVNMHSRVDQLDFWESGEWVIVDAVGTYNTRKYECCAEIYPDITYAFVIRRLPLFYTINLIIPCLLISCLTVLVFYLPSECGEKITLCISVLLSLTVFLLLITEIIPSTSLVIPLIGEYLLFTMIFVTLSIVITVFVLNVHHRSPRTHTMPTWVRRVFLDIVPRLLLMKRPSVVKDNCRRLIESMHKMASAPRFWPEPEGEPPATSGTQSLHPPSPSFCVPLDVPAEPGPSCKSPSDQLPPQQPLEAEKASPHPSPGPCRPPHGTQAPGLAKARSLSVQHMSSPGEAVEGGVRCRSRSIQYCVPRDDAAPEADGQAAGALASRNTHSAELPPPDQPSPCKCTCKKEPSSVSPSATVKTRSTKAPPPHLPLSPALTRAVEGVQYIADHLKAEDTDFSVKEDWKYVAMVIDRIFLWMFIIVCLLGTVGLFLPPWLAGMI
The target of another experiment is D(1A) dopamine receptor (Homo sapiens, UniProt P21728). The experiment is classed as functional, cell-based.
Chain of D(1A) dopamine receptor (P21728 whole entry): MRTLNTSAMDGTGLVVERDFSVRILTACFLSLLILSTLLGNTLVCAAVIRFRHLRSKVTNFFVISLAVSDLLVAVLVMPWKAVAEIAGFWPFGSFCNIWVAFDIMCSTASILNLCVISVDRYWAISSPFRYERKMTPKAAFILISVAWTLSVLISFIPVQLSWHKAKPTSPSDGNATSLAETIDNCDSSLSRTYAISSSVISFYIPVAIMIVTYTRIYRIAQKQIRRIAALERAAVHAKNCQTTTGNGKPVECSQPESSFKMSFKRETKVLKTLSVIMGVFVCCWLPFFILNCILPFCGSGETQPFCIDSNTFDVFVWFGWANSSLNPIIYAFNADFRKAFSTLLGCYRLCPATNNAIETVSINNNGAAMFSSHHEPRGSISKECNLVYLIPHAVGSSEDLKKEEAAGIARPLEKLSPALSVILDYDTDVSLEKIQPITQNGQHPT
The target of experiment [4] is Glutamate receptor ionotropic, NMDA 1 (Rattus norvegicus, UniProt P35439).
Experiment [5] concerns the target T2, Gamma-aminobutyric acid receptor subunit alpha-1 (Rattus norvegicus, UniProt P62813).
The target in a further experiment is Cannabinoid receptor 1 (Homo sapiens, UniProt P21554).
Chain of Cannabinoid receptor 1 (P21554 whole entry): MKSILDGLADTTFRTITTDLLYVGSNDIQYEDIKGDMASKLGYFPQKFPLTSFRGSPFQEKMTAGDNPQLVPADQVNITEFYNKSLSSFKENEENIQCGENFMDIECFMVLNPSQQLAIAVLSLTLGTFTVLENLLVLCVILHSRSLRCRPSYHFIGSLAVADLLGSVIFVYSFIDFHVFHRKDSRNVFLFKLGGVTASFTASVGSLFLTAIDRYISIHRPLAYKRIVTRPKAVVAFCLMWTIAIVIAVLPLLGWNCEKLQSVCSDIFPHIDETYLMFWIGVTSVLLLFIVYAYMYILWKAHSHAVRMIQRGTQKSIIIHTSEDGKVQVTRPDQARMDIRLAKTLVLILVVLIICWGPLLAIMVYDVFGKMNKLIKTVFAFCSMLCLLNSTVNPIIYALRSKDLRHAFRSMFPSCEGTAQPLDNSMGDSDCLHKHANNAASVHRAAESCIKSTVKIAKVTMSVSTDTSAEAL
Experiment [6] has as its target T3, 5-hydroxytryptamine receptor 2B (Homo sapiens, UniProt P41595). In kind it is functional, cell-based.
Experiment [7] deals with Sodium-dependent noradrenaline transporter (Homo sapiens, UniProt P23975).
In experiment [8] the target is T4, Mu-type opioid receptor (Homo sapiens, UniProt P35372). Put plainly: biochemical. The experiment is classed as functional.
T4 sequence (P35372 whole entry): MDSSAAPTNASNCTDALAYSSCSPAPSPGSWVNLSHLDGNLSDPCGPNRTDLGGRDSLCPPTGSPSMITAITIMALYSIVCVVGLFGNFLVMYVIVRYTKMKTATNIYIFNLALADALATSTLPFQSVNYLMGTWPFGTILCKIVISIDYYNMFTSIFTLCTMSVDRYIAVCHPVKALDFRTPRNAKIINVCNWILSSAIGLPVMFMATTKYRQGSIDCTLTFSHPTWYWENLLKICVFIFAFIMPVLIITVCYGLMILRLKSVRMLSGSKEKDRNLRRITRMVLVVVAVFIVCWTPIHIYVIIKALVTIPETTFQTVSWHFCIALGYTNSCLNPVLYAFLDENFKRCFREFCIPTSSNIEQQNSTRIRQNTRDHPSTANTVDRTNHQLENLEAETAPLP
Experiment [9] has as its target T4, Mu-type opioid receptor.
Experiment [10] concerns the target T3, 5-hydroxytryptamine receptor 2B. In kind it is functional, cell-based. This is another data set of the same source.
Experiment [11] concerns the target T2, Gamma-aminobutyric acid receptor subunit alpha-1. In kind it is functional.
The target in experiment [12] is T1, Acetylcholinesterase. The experiment is classed as functional. The source holds these as a separate data set.
Another experiment deals with Bile salt export pump (Homo sapiens, UniProt O95342). The experiment is classed as functional.
Chain of Bile salt export pump (O95342 whole entry): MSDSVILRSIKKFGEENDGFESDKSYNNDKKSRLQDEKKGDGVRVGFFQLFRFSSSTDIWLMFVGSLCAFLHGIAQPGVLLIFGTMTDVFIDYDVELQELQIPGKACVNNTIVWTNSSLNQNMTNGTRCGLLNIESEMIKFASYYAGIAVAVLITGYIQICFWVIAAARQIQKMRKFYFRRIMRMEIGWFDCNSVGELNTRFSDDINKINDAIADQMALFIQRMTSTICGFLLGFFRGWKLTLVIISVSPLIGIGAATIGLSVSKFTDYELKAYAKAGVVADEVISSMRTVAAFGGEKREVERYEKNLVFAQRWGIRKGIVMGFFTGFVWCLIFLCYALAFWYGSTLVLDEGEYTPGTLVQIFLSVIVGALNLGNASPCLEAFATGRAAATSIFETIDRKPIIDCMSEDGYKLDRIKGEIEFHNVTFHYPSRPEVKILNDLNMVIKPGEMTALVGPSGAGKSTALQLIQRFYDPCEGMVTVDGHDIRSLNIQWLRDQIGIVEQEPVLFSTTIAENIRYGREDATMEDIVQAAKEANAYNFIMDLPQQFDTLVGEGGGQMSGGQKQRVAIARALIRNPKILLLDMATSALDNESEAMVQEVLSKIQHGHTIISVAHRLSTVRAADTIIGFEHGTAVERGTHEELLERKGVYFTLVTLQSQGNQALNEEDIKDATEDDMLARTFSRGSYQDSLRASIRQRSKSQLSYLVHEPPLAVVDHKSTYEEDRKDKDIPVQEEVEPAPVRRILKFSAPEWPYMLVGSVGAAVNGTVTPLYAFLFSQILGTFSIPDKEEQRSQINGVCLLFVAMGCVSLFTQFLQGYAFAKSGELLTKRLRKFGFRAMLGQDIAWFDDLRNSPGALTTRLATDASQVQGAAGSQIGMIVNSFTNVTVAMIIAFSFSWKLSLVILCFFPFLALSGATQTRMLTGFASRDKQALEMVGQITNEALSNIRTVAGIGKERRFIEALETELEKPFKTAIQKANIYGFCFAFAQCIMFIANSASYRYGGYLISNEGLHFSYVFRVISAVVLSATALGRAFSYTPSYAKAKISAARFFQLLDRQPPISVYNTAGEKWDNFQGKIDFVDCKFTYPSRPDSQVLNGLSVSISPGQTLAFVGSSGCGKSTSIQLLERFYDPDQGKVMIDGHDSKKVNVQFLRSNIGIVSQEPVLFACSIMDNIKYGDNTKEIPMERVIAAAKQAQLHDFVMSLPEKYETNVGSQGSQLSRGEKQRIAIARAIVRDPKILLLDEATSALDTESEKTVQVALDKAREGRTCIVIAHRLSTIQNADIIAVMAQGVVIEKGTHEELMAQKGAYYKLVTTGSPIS
The target in experiment [13] is Voltage-gated inwardly rectifying potassium channel KCNH2 (Homo sapiens, UniProt Q12809). The experiment is classed as functional. The settings on record: read-out: AC50.
For experiment [14], the target named is T5, Alpha-2C adrenergic receptor (Homo sapiens, UniProt P18825).
T5 sequence (P18825 whole entry): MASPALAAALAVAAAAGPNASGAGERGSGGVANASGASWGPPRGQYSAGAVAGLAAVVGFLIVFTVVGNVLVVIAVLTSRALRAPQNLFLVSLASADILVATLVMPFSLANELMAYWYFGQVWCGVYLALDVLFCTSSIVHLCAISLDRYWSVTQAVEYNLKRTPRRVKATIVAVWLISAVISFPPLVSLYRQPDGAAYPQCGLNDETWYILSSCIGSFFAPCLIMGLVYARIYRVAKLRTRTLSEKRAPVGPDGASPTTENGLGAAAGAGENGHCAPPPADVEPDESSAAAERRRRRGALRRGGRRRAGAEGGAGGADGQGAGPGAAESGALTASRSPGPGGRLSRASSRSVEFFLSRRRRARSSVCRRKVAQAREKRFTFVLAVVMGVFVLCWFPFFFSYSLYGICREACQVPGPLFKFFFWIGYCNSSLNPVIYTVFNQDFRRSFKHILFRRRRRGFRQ
The experiment is classed as functional.

Experiment [15] has as its target 5-hydroxytryptamine receptor 2A (Homo sapiens, UniProt P28223). The experiment is classed as functional, cell-based.
In experiment [16] the target is T6, Muscarinic acetylcholine receptor M5 (Homo sapiens, UniProt P08912).
T6 sequence (P08912 whole entry): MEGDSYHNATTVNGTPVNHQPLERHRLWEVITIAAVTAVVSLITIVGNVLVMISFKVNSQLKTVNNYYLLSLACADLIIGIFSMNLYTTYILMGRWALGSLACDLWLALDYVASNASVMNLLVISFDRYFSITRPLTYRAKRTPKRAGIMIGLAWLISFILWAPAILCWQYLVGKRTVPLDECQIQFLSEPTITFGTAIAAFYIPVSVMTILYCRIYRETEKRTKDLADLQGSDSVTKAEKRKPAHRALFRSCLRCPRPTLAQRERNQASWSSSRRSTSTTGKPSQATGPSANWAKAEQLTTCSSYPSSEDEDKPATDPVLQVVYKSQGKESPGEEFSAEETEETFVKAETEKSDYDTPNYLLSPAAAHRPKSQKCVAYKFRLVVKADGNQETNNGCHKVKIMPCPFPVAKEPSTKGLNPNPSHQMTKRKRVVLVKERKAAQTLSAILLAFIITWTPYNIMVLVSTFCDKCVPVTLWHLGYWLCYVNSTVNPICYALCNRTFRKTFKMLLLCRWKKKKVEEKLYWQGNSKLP

The target of experiment [17] is T7, Muscarinic acetylcholine receptor M4 (Homo sapiens, UniProt P08173).
T7 sequence (P08173 whole entry): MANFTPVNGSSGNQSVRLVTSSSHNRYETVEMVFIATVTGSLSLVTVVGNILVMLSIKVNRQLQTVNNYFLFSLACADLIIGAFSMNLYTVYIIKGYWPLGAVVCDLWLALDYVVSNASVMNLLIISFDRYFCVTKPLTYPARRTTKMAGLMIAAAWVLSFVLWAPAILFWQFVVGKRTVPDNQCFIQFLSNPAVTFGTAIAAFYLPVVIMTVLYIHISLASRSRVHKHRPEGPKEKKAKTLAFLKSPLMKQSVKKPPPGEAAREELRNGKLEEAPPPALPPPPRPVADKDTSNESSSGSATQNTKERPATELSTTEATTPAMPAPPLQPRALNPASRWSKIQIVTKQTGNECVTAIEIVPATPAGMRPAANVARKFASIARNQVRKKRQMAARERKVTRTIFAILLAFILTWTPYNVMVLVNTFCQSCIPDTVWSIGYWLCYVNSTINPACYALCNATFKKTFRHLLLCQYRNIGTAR
Also: assay procedure not described here.

T1 sequence (P22303 whole entry): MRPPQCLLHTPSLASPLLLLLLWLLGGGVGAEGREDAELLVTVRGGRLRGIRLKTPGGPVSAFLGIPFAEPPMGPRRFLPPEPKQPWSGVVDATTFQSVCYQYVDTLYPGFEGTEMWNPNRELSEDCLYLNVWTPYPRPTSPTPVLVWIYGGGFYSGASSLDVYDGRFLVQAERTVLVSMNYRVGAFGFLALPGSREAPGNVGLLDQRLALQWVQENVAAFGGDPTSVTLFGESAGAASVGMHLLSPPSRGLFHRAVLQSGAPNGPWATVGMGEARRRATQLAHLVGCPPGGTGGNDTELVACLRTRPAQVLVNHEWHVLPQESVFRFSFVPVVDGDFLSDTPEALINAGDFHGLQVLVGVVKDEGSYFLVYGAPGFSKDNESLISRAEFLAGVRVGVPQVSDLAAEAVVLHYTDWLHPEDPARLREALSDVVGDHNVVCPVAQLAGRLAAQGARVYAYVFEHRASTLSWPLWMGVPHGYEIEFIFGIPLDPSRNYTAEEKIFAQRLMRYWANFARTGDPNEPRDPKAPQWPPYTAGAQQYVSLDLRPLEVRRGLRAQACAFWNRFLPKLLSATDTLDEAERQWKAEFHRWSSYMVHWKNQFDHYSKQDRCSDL
T2 sequence (P62813 whole entry): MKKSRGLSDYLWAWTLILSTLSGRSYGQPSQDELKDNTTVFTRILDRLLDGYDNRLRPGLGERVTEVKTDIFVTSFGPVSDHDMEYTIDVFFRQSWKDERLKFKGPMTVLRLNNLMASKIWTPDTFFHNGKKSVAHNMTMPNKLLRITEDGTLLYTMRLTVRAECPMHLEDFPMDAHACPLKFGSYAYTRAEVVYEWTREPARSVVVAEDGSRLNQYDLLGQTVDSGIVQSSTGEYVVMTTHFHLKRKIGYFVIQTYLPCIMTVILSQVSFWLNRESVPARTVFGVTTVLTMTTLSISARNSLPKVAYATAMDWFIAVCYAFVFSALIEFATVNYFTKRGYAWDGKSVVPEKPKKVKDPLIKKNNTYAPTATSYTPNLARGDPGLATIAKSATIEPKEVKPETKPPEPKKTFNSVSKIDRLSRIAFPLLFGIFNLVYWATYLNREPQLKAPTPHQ
T3 sequence (P41595 whole entry): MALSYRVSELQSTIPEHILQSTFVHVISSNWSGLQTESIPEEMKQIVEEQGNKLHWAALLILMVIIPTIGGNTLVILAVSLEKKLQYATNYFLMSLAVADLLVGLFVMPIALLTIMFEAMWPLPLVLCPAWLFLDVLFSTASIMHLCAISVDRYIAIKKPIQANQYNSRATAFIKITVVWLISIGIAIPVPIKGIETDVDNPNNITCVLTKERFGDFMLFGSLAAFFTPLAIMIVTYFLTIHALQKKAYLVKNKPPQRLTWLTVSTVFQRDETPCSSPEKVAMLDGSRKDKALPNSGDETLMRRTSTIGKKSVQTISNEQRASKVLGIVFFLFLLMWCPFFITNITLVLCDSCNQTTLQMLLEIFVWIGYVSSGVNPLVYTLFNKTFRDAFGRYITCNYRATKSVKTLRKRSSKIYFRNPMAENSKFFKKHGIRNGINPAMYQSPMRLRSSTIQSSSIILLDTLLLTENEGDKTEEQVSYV

As usually defined, the AC50 is the concentration giving half of the maximal activity seen. On Acetylcholinesterase [1], `CCN(CC)C(=S)SSC(=S)N(CC)CC` registered a half-maximal activity concentration (AC50) of 14.2 µM.
On to `CCCC(=O)Nc1ncnc2c1ncn2[C@@H]1O[C@@H]2COP(=O)(O)O[C@H]2[C@H]1OC(=O)CCC` [BUCLADESINE], for which, at Acetylcholinesterase [1], the half-maximal activity concentration (AC50) is above 30 µM.
Turning to `O=C1CC2(CCCC2)CC(=O)N1CCCCN1CCN(c2ncccn2)CC1` [BUSPIRONE], the AC50 was above 10 µM in [2]; 0.048 µM at D(3) dopamine receptor; above 10 µM in experiment [3]; above 10 µM at D(1A) dopamine receptor; above 10 µM in experiment [4]; above 10 µM in [5]. Also, the AC50 at Cannabinoid receptor 1 was 17.5 µM; in experiment [6], 7.37 µM; in experiment [7], above 30 µM; on Mu-type opioid receptor [8], above 30 µM; on Mu-type opioid receptor [9] it was above 30 µM; in [10], above 10 µM. Further, in experiment [11], the concentration at half-maximal activity (AC50) is above 10 µM.
Molecule `NC(=O)OC[C@@H]1[C@H](NC(=O)/C(=N\OCC(=O)O)c2csc(N)n2)C(=O)N1S(=O)(=O)O` [CARUMONAM] came in with a concentration at half-maximal activity (AC50) on Acetylcholinesterase [12] above 500 µM.
In turn, `CC/C(=C(/CC)c1ccc(O)cc1)c1ccc(O)cc1` [DIETHYLSTILBESTROL] showed an AC50 on Acetylcholinesterase [1] above 30 µM.
Take `Nc1cccc2c1CN(C1CCC(=O)NC1=O)C2=O` (configuration not stated) [LENALIDOMIDE]: the AC50 on Bile salt export pump is above 300 µM.
Take `NCCCC[C@H](N[C@@H](CCc1ccccc1)C(=O)O)C(=O)N1CCC[C@H]1C(=O)O` [LISINOPRIL ANHYDROUS]: at Acetylcholinesterase [1], the AC50 is above 30 µM.
For the molecule `C[N+]1(C)[C@@H]2CC[C@H]1C[C@@H](OC(=O)C(O)c1ccccc1)C2` (some centres not stated) [METHYLHOMATROPINE], the half-maximal activity concentration (AC50) in experiment [13] is above 30 µM.
For the molecule `CN1CCN2c3ccccc3Cc3ccccc3C2C1` (configuration not stated) [MIANSERIN], the figures for the AC50 (in experiment [14]; at Acetylcholinesterase [1]) were 0.05 µM and above 30 µM, respectively.
On to `CC(=O)[C@H]1CC[C@H]2[C@@H]3CCC4=CC(=O)CC[C@]4(C)[C@H]3CC[C@]12C` [PROGESTERONE], for which the AC50 at Acetylcholinesterase [1] is above 30 µM.
Turning to `CCN(c1cc(-c2ccc(CN3CCOCC3)cc2)cc(C(=O)NCc2c(C)cc(C)[nH]c2=O)c1C)C1CCOCC1` [TAZEMETOSTAT], the half-maximal activity concentration (AC50) (in [15]; on Acetylcholinesterase [12]) was above 30 µM each time.
For the molecule `C[N+]1(C)[C@@H]2C[C@@H](OC(=O)C(O)(c3cccs3)c3cccs3)C[C@H]1[C@@H]1O[C@@H]12` [TIOTROPIUM BROMIDE], the AC50 in experiment [16] is 0.0015 µM; in experiment [17] it was 0.0003 µM.
